# Measurements: patent publication US20050277624A1, “Use of corticosteroids alone or in conjunction with nutritional therapy to reduce stress in animals” (priority 2004, published 2005)
# Legend:
# [1] = Weight loss of calves during 10 h transport (Example 1); format: in vivo, crossbred calves (cattle); conditions: calves ~600 lb, dexamethasone i.m. 2 mg per 50 lb body weight
# Text: Forty head of crossbred calves, both steers and heifers, and weighing approximately 600 lb (272 kg) on average were used. The calves were raised at the Agriculture and Agri-Food Canada Lacombe Research Centre (Lacombe, Alberta, Canada) in accordance with standard operating procedures representative of the cattle industry. The calves were randomly divided into two treatment groups designated as control (n=20) and dexamethasone-treated (n=20) and kept on standard feed (cereal grain silage) and water rations prior to transport.
# Weights of all animals were recorded pre- and post-transport, metabolic activity was assessed by infrared thermographic analyses (IRT) of the eye region, and a salivary swab collection made for cortisol measurement.
# The animals were subsequently loaded onto a commercial transport and transported for 10 h prior to being off loaded at the Agriculture and Agri-Food Canada Kamloops Research Centre (Kamloops, British Columbia, Canada). On arrival, the calves were again weighed, infrared images captured and a salivary swab collected. The animals were held overnight in pens with ad libitum access to water and cereal grain silage, and were again monitored for weight, thermal changes and salivary cortisol the following morning.
# [2] = Weight loss of calves during 8 h transport (Example 2); format: in vivo, crossbred calves (cattle); conditions: calves ~800 lb, dexamethasone i.m. 0.61 mg per 50 lb, NT 1 kg/animal 24 h prior
# Text: The study in Example 1 was repeated with the addition of a nutritional supplement treatment group. The calves were raised at the Agriculture and Agri-Food Canada Lacombe Research Centre (Lacombe, Alberta, Canada) in accordance with standard operating procedures representative of the cattle industry. The breed, sex and weight of the calves were similar to those used in Example 1. Crossbred calves weighing approximately 800 lb (363 kg) on average were used.
# Twenty-four hours prior to transport, the calves were assigned to the nutritional supplement groups and were offered 1 kg/animal of nutritional supplement or a “receiver calf” preparation (Supplement 1(d) as described in U.S. Pat. Nos. 5,505,968 and 5,728,675 to Schaefer et al. with differences being the selection of flavoring, form of an extruded pellet, and carrier being alfalfa) along with their regular feed ration (cereal grain silage). All calves in all treatments were kept on normal feed and water rations prior to transport.
# Weights of all animals were recorded pre- and post-transport and metabolic activity was assessed by infrared thermographic analyses of the eye region. […] The animals were then loaded onto a commercial transport carrier and transported for 8 h prior to being offloaded, re-weighed, re-scanned with infrared and re-sampled for cortisol. […]
# calves = assay: Behavioural scans (lying and eating frequency) for three days following transport (Example 3); format: in vivo; conditions: three day average following transport
# Text: Corticosteroid treatment in conjunction with a nutritional supplement appears to enhance recovery from transport stress. The behavioral responses of animals were monitored following transport. Calves were allocated among five treatment groups as follows:
# For all of the above groups, ten behavioural scans lasting one minute each were completed each day (pm) for three days following transport, thereby accumulating a total of 2,280 animal observations. Frequency measures of animals lying and eating were collected. It is well known to those skilled in the art that when animals are fatigued or morbid, they tend to lie down (Kilbour et al., 1984; Agri-Food Research Council Canadian Food Inspection Agency, 2001).
structure (smiles),measurement,setting,value
C[C@@H]1C[C@H]2[C@@H]3CCC4=CC(=O)C=C[C@]4(C)[C@@]3(F)[C@@H](O)C[C@]2(C)[C@@]1(O)C(=O)CO [dexamethasone],weight loss during transport,[1]; control lost 5%,3.2 % body weight
same,weight loss during transport,[1]; control lost 13.8 kg,8.7 kg
same,weight loss during transport,"[1]; control lost 30.5 lb, P<0.05",19.2 lb
same,weight loss during transport,[2]; control lost 21.5 kg,17.6 kg
same,weight loss during transport,"[2]; control lost 47.36 lb, P<0.05",38.87 lb
same,Eating Frequency,"calves; control away 20%, control home 78%",24%
same,Lying Frequency,"calves; control away 97%, control home 23%",0%
